# Data: publication PMC12162873, “Modulating phosphatase DUSP22 with BML-260 ameliorates skeletal muscle wasting via Akt independent JNK-FOXO3a repression” (EMBO Molecular Medicine, 2025)
# Key:
# C2C12 myotubes = experiment: Western blotting of C2C12 myotubes; type: cell-based, mouse
# Method: C2C12 murine skeletal muscle myoblasts were purchased from Koram Biotech Corp. (Seoul, Republic of Korea). Prior to experiments, mycoplasma contamination was eliminated using the MycoXpert Mycoplasma Removal Reagent (MYX-B, CAPRICORN) following the manufacturer’s protocol. To ensure complete removal, all cells were passaged three times after treatment before being used in subsequent experiments. No STR profiling was recently undertaken. Myoblasts were cultured in growth media (GM), containing Dulbecco’s modified Eagle’s medium (DMEM), 10% fetal bovine serum, and 1% penicillin and streptomycin (PenStrep). C2C12 myoblasts were differentiated into myotubes at more than 80% confluence by culture in differentiation media (DM), containing DMEM supplemented with 2% horse serum and PenStrep, for 96 h. To induce atrophy, the myotubes were treated with DM plus 10 μM Dex for 24 h. BML-260 and SP600125 were purchased from Santa Cruz Biotechnology, TX, USA (cat. no. sc-223822 and sc-200635).
# Western blotting was carried out using the previously published protocol (Lee et al, [2020]). The NIH imaging software Image J 64 was used for densitometry analysis of the gel bands. The primary and secondary antibodies used in this study are shown in the reagent and tools table. Chemiluminescence was used to detect the secondary antibody. […]
# [1] = test system: TA muscle of C57BL/6 mice; experiment: Whole genome RNA-Seq of TA muscle of geriatric mice; type: in vivo, mouse; conditions: 5 mg/kg IP every 24 h for 4 weeks
# Source text: Figure 8 Whole genome RNA Seq analysis of DUSP22 pharmacological targeting in geriatric mouse TA muscle. (A) Principal component analysis of gene expression variance in the vehicle treated (Con) and BML-260 treated groups (n = 3). (B) Volcano plot of differentially expressed genes. Selected genes linked to FOXO3a signaling are indicated. (C) Expression analysis of genes related to FOXO3a signaling measured by overall TPM fold change. The control was set as the baseline value of 1. A value of 2 would indicate a 2-fold increase, and 0.5 would indicates a 2-fold decrease. (D) Expression of selected genes linked to FOXO3a signaling as normalized counts from the raw read. (E) Expression of the exercise-induced myokine musclin (Ostn). (F) Gene ontology (GO) analysis of the […] muscle cell differentiation and muscle fiber development. Also shown are Six1 and Six4 (which specify fast twitch myofiber development), Ostn and fast myosin (MYH4; the predominant myosin type in the fast-twitch TA muscle). Box plots represent the distribution of Fbxo32, Trim63, Fbxo30, Gadd45a, Ctsl, Bnip3, Ostn expression levels. The center line indicates the median (50th percentile, Q2), representing the middle value of the dataset. The box bounds correspond to the interquartile range (IQR), extending from the 25th percentile (Q1, lower bound) to the 75th percentile (Q3, upper bound). Whiskers extend to the smallest and largest values within 1.5 × IQR from Q1 and Q3, representing the minimum (lower whisker) and maximum (upper whisker) values within this range. […] Error bars represent the standard error of the mean (SEM). Source data are available online for this figure.
# RNA samples were harvested from the TA muscles of 24–26-month-old male C57BL/6 mice treated as follows: (1) vehicle alone (5% DMSO + 5% tween 80) and (2) 5 mg/kg BML-260. Mice were treated by IP delivery every 24 h for 4 weeks (n = 3 per group). RNA-Seq was provided by Macrogen, Republic of Korea. Prior to the commencement of sequencing, QC was carried out using FastQC v0.11.7 (http://www.bioinformatics.babraham.ac.uk/projects/fastqc/). Illumina paired ends or single ends in the sequenced samples were trimmed using Trimmomatic 0.38 with various parameters (http://www.usadellab.org/cms/?page=trimmomatic). The sequences of the samples were mapped and analyzed using HISAT2 version 2.1,0, Bowtie2 2.3.4.1 (https://ccb.jhu.edu/software/hisat2/index.shtml). Potential transcripts and multiple splice variants were assembled using StringTie version 2.1.3b (https://ccb.jhu.edu/software/stringtie/). The normalized sample counts were generated using DESeq2, which was also used for normalization, visualization, and differential analysis. PCA was performed using normalized sample counts. The “apeglm” type was used to calculate shrink log2 fold changes.
# adipocytes = test system: adipocytes; design: method as in Feng et al, 2019; conditions: ref Feng et al, 2019; cited from earlier work
compound,measurement,setting,value
O=C(O)c1ccc(N2C(=O)C(=Cc3ccccc3)SC2=S)cc1 (stereo in doubt) [BML-260],"atrogin-1, MuRF-1 and DUSP22 levels, western blot",C2C12 myotubes; Dex-treated myotubes,reduced
same,Akt activity,C2C12 myotubes; summary statement of the discussion,not upregulated
same,expression of Six1 and Six4,[1],upregulated
same,expression of fast myosin (MYH4),[1],increased
same,expression of musclin (OSTN),[1],upregulated
same,genes linked to FOXO3a signaling (including atrogin-1 and MuRF-1),[1],downregulated
same,genes linked to the PI3K-Akt pathway,[1],downregulated
same,number of differentially expressed genes (DEGs),[1]; versus vehicle,350
same,expression of uncoupling protein-1 (UCP-1),adipocytes,upregulates
